{"source": "patent US6274636A", "about": "(priority 1999, dated 2001)", "key": {"5-HT1C receptor": {"test_system": "5-HT1C receptor", "assay": "activity at the 5-HT1C receptor", "conditions": "anhydrous Form II"}, "[1]": {"test_system": "muscarinic cholinergic receptor", "assay": "pharmacological studies, muscarinic cholinergic receptor activity"}, "rats": {"test_system": "rats", "assay": "in vivo animal observation, overdose in rats", "conditions": "rats exposed to an overdose"}, "clinical subjects": {"test_system": "clinical subjects", "assay": "clinical observation, pupil response", "assay_type": "in vivo, human"}, "[2]": {"test_system": "muscarinic receptor subtype", "assay": "in vivo animal and clinical observations, muscarinic receptor subtype profile"}, "[3]": {"assay": "human clinical trials, safety profile", "assay_type": "in vivo"}, "[4]": {"assay": "detection of radiolabelled compound in saliva", "assay_type": "in vivo"}, "[5]": {"conditions": "known; cited from earlier work"}}, "data": [{"smiles": "Cc1cc2c(s1)Nc1ccccc1N=C2N1CCN(C)CC1", "note": "[anhydrous Form II, 2-methyl-4-(4-methyl-1-piperazinyl)-10H-thieno[2,3-b][1,5]benzodiazepine]", "values": [{"measurement": "activity at the 5-HT1C receptor", "setting": "5-HT1C receptor", "result": "active"}]}, {"smiles": "Cc1cc2c(s1)Nc1ccccc1N=C2N1CCN(C)CC1", "note": "[2-methyl-4-(4-methyl-1-piperazinyl)-10H-thieno[2,3-b][1,5]benzodiazepine]", "values": [{"measurement": "muscarinic cholinergic receptor activity", "setting": "[1]", "result": "has muscarinic cholinergic receptor activity"}, {"measurement": "salivation", "setting": "rats", "result": "significant salivation"}, {"measurement": "pupilary response", "setting": "clinical subjects", "result": "pupilary constriction rather than the expected pupilary dilation"}, {"measurement": "muscarinic receptor subtype profile", "setting": "[2]", "result": "complex muscarinic receptor subtype profile"}, {"measurement": "safety profile", "setting": "[3]", "result": "favorable safety profile"}, {"measurement": "detection in the saliva", "setting": "[4]", "result": "can be detected in the saliva"}, {"measurement": "induction of extrapyramidal symptoms", "setting": "[5]", "result": "less likely to induce extrapyramidal symptoms"}]}]}
